Measured values published in patent US12162861B2, “Dopamine D3 receptor selective antagonists/partial agonists; method of making; and use thereof” (THE UNITED STATES OF AMERICA, AS REPRESENTED BY THE …, priority 2016, dated 2024).
“Also recorded” adds a separate entry of the source.

Columns and labels:
human D2R = biological target: T1, human D2R (Homo sapiens, UniProt P14416); assay: Radioligand competition binding, [3H]N-methylspiperone, D2R; conditions: Table 1A; HEK 293 cells transfected with hD2LR, [3H]N-methylspiperone; read-out: D2R K ± SEM
T1 construct: expressed in transfected cells; host or cells: HEK293
T1 sequence (P14416 whole entry): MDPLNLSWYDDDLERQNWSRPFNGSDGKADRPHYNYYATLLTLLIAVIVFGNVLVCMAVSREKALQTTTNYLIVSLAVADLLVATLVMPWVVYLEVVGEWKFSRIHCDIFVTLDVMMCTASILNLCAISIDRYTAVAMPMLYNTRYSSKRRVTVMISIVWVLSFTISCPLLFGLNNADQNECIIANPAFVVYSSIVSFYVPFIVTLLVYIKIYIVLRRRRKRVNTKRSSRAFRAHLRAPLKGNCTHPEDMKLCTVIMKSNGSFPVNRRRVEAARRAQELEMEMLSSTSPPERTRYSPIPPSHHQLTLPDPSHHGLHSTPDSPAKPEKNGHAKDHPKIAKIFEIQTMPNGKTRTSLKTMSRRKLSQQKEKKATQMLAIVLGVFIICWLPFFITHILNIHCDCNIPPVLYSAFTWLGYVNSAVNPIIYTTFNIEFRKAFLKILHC
Procedure: Binding at dopamine D2-like receptors was determined using previously described methods. (Chen et al. “Tranylcypromine substituted cis-hydroxycyclobutylnaphthamides as potent and selective dopamine D(3) receptor antagonists.” J. Med. Chem. 2014, 57, 4962-4968) Membranes were prepared from HEK293 cells expressing human D2R, D3R or D4R, grown in a 50:50 mix of DMEM and Ham's F12 culture media, supplemented with 20 mM HEPES, 2 mM L-glutamine, 0.1 mM non-essential amino acids, 1× antibiotic/antimycotic, 10% heat-inactivated fetal bovine serum, and 200 μg/mL hygromycin (Life Technologies, Grand Island, NY) and kept in an incubator at 37° C. and 5% CO2. Upon reaching 80-90% confluence, cells were harvested using pre-mixed Earle's Balanced Salt Solution (EBSS) with 5 μM EDTA (Life Technologies) and centrifuged at 3000 rpm for 10 min at 21° C. The supernatant was removed and the pellet was resuspended in 10 mL hypotonic lysis buffer (5 mM MgCl2·6H2O, 5 mM Tris, pH 7.4 at 4° C.) and centrifuged at 20,000 rpm for 30 min at 4° C. The pellet was then resuspended in fresh EBSS buffer made from 8.7 g/L Earle's Balanced Salts without phenol red (US Biological, Salem, MA), 2.2 g/L sodium bicarbonate, pH to 7.4. A Bradford protein assay (Bio-Rad, Hercules, CA) was used to determine the protein concentration and membranes were diluted to 500 μg/mL and stored in a −80° C. freezer for later use.
Radioligand competition binding experiments were conducted using thawed membranes. Test compounds were freshly dissolved in 30% DMSO and 70% H2O to a stock concentration of 100 μM. To assist the solubilization of free-base compounds, 10 μl of glacial acetic acid was added along with the DMSO. Each test compound was then diluted into 13 half-log serial dilutions using 30% DMSO vehicle; final test concentrations ranged from 10 μM to 10 pM. Previously frozen membranes were diluted in fresh EBSS to a 100 μg/mL (for hD2R or hD3R) or 200 μg/mL (hD4R) stock for binding. Radioligand competition experiments were conducted in glass tubes containing 300 μl fresh EBSS buffer with 0.2 mM sodium metabisulfite, 50 μl of diluted test compound, 100 μl of membranes (10 μg total protein for hD2R or hD3R, 20 μg total protein for hD4R), and 50 μl of [^3H]N-methylspiperone (0.4 nM final concentration; Perkin Elmer). Nonspecific binding was determined using 10 μM butaclamol (Sigma-Aldrich, St. Louis, MO) and total binding was determined with 30% DMSO vehicle. All compound dilutions were tested in triplicate and the reaction incubated for one hour at room temperature. The reaction was terminated by filtration through Whatman GF/B filters, presoaked for one hour in 0.5% polyethylenimine, using a Brandel R48 filtering manifold (Brandel Instruments, Gaithersburg, MD). The filters were washed 3 times with 3 mL of ice cold EBSS buffer and transferred to scintillation vials. 3 mL CytoScint liquid scintillation cocktail (MP Biomedicals, Solon, OH) was added and vials were counted using a Perkin Elmer Tri-Carb 2910 TR liquid scintillation counter (Waltham, MA). IC50 values for each compound were determined from dose-response curves and Ki values were calculated using the Cheng-Prusoff equation; these analyses were performed using GraphPad Prism version 5.00 for Windows (GraphPad Software, San Diego, CA). Reported Ki values were determined from least three independent experiments.

[1] = Mouse microsomal stability assay; assay type: in vitro ADME; conditions: mouse liver microsomes, Phase I, 10 μM compound, 0.5 mg/mL microsomes
Procedure: Mouse Microsomal Stability Assay. […] The reaction was carried out with 100 mM potassium phosphate buffer, pH 7.4, in the presence of NADPH regenerating system, (compound final concentration was 10 μM; 0.5 mg/mL microsomes). Positive controls for phase I metabolism (testosterone) were also evaluated. Compound disappearance was monitored over time using a liquid chromatography and tandem mass spectrometry (LC/MS/MS) method. All reactions were sampled in triplicate. Chromatographic analysis was performed using an Accela ultra high-performance system consisting of an analytical pump and an autosampler coupled with a TSQ Vantage mass spectrometer (Thermo Fisher Scientific Inc., Waltham, MA). […] The mobile phase used was composed of 0.1% formic acid in acetonitrile and 0.1% formic acid in H2O with gradient elution, starting with 10% (organic) linearly increasing to 99% up to 2 min, maintaining at 99% (2-2.5 min) and reequilibrating to 10% by 2.7 min. The total run time for each analyte was 4.5 min.

opiate mu receptor = opiate mu receptor (Homo sapiens, UniProt P35372); assay: Binding to opiate mu receptor
Chain of opiate mu receptor (P35372 whole entry): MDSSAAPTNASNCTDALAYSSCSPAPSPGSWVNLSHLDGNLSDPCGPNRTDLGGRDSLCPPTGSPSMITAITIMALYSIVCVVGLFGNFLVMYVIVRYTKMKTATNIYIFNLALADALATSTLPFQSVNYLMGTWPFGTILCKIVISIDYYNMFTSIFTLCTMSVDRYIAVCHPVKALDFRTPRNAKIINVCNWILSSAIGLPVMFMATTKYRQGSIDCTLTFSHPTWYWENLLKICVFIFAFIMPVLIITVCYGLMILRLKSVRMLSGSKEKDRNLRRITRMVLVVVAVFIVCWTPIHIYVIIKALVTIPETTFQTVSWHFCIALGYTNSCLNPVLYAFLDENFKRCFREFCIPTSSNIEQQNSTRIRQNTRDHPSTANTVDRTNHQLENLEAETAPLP

opiate delta receptor = opiate delta receptor (Homo sapiens, UniProt P41143); assay: Binding to opiate delta receptor
Chain of opiate delta receptor (P41143 whole entry): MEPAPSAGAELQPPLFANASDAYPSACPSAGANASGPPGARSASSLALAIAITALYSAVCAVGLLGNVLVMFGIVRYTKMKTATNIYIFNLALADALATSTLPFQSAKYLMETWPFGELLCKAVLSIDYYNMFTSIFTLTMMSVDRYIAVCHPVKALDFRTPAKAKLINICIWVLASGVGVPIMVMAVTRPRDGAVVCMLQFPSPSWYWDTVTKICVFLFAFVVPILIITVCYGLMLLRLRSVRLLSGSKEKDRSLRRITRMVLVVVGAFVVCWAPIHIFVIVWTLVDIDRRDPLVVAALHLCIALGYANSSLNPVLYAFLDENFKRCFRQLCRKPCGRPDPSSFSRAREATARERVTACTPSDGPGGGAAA

opiate kappa receptor = opiate kappa receptor (Homo sapiens, UniProt P41145); assay: Binding to opiate kappa receptor
Chain of opiate kappa receptor (P41145 whole entry): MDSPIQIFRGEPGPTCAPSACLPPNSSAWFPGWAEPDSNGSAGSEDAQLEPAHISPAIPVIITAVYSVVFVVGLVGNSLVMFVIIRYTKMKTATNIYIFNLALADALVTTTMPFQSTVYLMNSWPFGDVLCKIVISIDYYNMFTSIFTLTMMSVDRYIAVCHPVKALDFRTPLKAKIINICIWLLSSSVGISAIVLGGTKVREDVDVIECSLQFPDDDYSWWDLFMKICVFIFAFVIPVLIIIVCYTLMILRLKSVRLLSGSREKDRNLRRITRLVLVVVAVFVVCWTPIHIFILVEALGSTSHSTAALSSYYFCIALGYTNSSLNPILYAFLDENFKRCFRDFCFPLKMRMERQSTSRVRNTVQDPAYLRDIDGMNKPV

squirrel monkeys = assay: THC priming-induced reinstatement of drug seeking in squirrel monkeys; assay type: in vivo, squirrel monkey (Saimiri sciureus); conditions: squirrel monkeys, 1, 3, and 10 mg/kg i.m., FIG. 9
Text: Reinstatement studies: In order to separately determine the reinstatement effects of a priming injection and drug-associated cues, we use two different extinction protocols (described below) that allow us to isolate the effects of these independent variables.
Priming-induced reinstatement: Before priming-induced reinstatement testing began, monkeys were allowed to self-administer the training dose of THC until they reached a stable baseline (5-10 sessions). In subsequent extinction sessions, lever presses led to i.v. saline infusions plus the visual cues that had been associated previously with THC. After at least two sessions of extinction, when responding had reached a low, stable level, a priming injection of THC (0.04 mg/kg i.v.) was given immediately before the next session, during which responding (FR10) continued to produce only i.v. saline injections and the discrete visual cues. […] A non-contingent i.v. injection of vehicle was also given before each extinction session as a control for the drug priming treatment.
Δ^9-tetrahydrocannabinol (THC, NIDA Drug Supply Program, Bethesda, MD, USA) was dissolved in a vehicle containing 1% Tween 80, 1% ethanol, and saline to obtain stock solution (0.4 mg/ml) and further diluted with saline. In the reinstatement tests, THC was injected i.v. (1 ml/kg) immediately before the session.

C57BL/6J mice = conditions: listed as (±)-29

Ki (human D2R): 17.1 ± 5.09 µM
% remaining over 1 h [1]: > 80%
binding to opiate mu receptor (opiate mu receptor): does not bind
binding to opiate delta receptor (opiate delta receptor): does not bind
binding to opiate kappa receptor (opiate kappa receptor): does not bind
SMILES: CCc1cc(Cl)c(OC)c(N2CCN(CC(O)CCNC(=O)c3cc4ccccc4[nH]3)CC2)c1 (racemic) [Compound 29, N-(4-(4-(3-chloro-5-ethyl-2-methoxyphenyl)piperazin-1-yl)-3-hydroxybutyl)-1H-indole-2-carboxamide]
THC-induced reinstatement to drug seeking (squirrel monkeys): attenuates THC-induced reinstatement to drug seeking; also recorded: blocked THC-induced reinstatement of drug seeking
THC-induced reinstatement to drug seeking (squirrel monkeys; listed as (±)-29): attenuation of THC-induced reinstatement to drug seeking
acute oxycodone-induced hyperactivity (C57BL/6J mice; mice, 5, 15 mg/kg ip 15 min before oxycodone 4 mg/kg, day 2): dose-dependently inhibited oxycodone-induced hyperactivity
oxycodone prime-induced locomotor sensitization after 2 days of withdrawal (C57BL/6J mice; mice, day 9, oxycodone 4 mg/kg challenge without pretreatment): long-lasting inhibition in oxycodone-induced increases in locomotion
